Measurements published in patent US5763457A, “Method for treating anxiety” (Eli Lilly and Company, priority 1996, dated 1998).
pIC50, pKd: −log10 of the molar value. Like-named read-outs stand apart in the source and are kept apart here.

Key:
[1] = target: muscarinic acetylcholine receptors; assay: inhibition of specific binding of ^3 H-Oxotremorine-M (^3 H-Oxo); details: ^3 H-Oxotremorine 1.0 nM, rat cortex, 30 min, 25° C.
From the text: The pharmacological properties of the compounds of the invention can be illustrated by determining their capability to inhibit the specific binding of ^3 H-Oxotremorine-M (^3 H-Oxo). Birdsdall N. J. M., Hulme E. C., and Burgen A. S. V. (1980). "The Character of Muscarinic Receptors in Different Regions of the Rat Brain". Proc. Roy. Soc. London (Series B) 207,1.
^3 H-Oxo labels muscarinic receptor in the CNS (with a preference for agonist domains of the receptors). Three different sites are labeled by ^3 H-Oxo. […] Using the present experimental conditions only the high and medium affinity sites are determined.
The inhibitory effects of compounds on ^3 H-oxo binding reflects the affinity for muscarinic acetylcholine receptors.
(§1) All preparations are performed at 0°-4° C. unless otherwise indicated. Fresh cortex (0.1-1 g) from male Wistar rats (150-250 g) is homogenized for 5-10 s in 10 mL 20 nM Hepes pH: 7.4, with an Ultra-Turrax homogenizer. The homogenizer is rinsed with 10 mL of buffer and the combined suspension centrifuged for 15 min. at 40,000×g. The pellet is washed three times with buffer. In each step the pellet is homogenized as before in 2×10 mL of buffer and centrifuged for 10 min. at 40,000×g.
The final pellet is homogenized in […] Hepes pH: 7.4 (100 mL per g of original tissue) and used for binding assay. Aliquots of 0.5 mL is added 25 μL of test solution and 25 μL of ^3 H-Oxotremorine (1.0 nM, final concentration) mixed and incubated for 30 min. at 25° C. Non-specific binding is determined in triplicate using arecoline (1 μg/mL, final concentration) as the test substance. After incubation samples are added 5 mL of ice-cold buffer and poured directly onto Whatman GF/C glass fiber filters under suction and immediately washed 2 times with 5 mL of ice-cold buffer. The amount of radioactivity on the filters are determined by conventional liquid scintillation counting. Specific binding is total binding minus non specific binding.
Test substances are dissolved in 10 mL water (if necessary heated on a steam-bath for less than 5 min.) at a concentration of 2.2 mg/mL. 25-75% inhibition of specific binding must be obtained before calculation of IC50. The test value will be given as IC50 (the concentration (nM) of the test substance which inhibits the specific binding of ^3 H-oxo by 50%). IC50 =(applied test substance concentration) x([…])nM where Co is specific binding in control assays and Cx is the specific binding in the test assay. (The calculations assume normal mass-action kinetics).

[2] = target: T1, muscarinic receptors (M1 -site, pirenzepine sensitive site) (Rattus norvegicus, UniProt P08482); assay: inhibition of ^3 HPRZ (pirenzepine, [N-methyl-^3 H]) binding to rat cerebral cortex membranes; details: ^3 HPRZ 1.0 nM, 60 min, 20° C.
T1 construct: from tissue; host or cells: fresh cerebral cortex membranes, male Wistar rat
T1 sequence (P08482 1-460): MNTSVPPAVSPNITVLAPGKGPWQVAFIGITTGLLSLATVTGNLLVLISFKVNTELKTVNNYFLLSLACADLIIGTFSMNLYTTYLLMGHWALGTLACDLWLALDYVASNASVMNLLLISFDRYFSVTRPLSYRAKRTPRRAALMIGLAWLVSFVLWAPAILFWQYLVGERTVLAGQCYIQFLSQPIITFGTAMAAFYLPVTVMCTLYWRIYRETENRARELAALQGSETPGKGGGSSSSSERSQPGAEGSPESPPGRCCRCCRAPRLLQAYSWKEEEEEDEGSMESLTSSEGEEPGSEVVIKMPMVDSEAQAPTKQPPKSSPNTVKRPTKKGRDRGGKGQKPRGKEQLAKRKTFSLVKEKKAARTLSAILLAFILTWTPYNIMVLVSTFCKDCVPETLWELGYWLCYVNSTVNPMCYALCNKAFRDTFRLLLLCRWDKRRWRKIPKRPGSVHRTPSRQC
Method: Furthermore the pharmacological properties of the compounds of the invention can also be illustrated by determining their capability to inhibit ^3 HPRZ (pirenzepine, [N-methyl-^3 H]) binding to rat cerebral cortex membranes.
Pirenzepine binds selectively to subtype of muscarinic receptors. Historically the type is named the M1 -site, whereas pirenzepine sensitive site would be more appropriate.
as §1, with “(0.1-1 9)” for “(0.1-1 g)”, “rats (150-200” for “rats (150-250”, “20 mM” for “20 nM”, “with 2×10” for “with 10”, “in 3×10” for “in 2×10”
The final pellet is homogenized in 20 mM Hepes pH: 7.4 (100 mL per g of original tissue) and used for binding assay. Aliquots of 0.5 mL is added 20 μL of test solution and 25 μL of ^3 HPRZ (1.0 nM, final conc.), mixed and incubated for 60 min. at 20° C. Non-specific binding is determined in triplicate using atropine (1.0 μg/mL, final conc.) as the test substance. After incubation samples are added 5 mL of ice-cold buffer and poured directly onto Whatman GF/C glass fiber filters under suction and immediately washed 2 times with 5 mL of ice-cold buffer. The amount of radioactivity on the filters are determined by conventional liquid scintillation counting. Specific binding is total binding minus non-specific binding.
Test substances are dissolved in 10 mL water, at a concentration of 0.22 mg/mL. 25-75% inhibition of specific binding must be obtained before calculation of IC50.
The test value will be given as IC50 (the concentration (nM) of the test substance which inhibits the specific binding of ^3 HPRZ by 50%). IC50 =(applied test substance concentration) x(Cx /Co -Cx)nM where Co is specific binding in control assays and Cx is the specific binding in the test assay. (The calculations assume normal mass-action kinetics).

[3] = system: 5-HT1A receptor; details: literature; cited from earlier work
[4] = system: dopamine receptors; details: literature; cited from earlier work
[5] = target: muscarinic receptor in the CNS; details: cited from earlier work
[6] = in vivo; cited from earlier work
[7] = system: M1 -sites; details: cited from earlier work
[8] = system: M2 -sites; details: cited from earlier work

Structure (SMILES): CCCCOc1nonc1OC1CN2CCC1CC2 (racemic) [Compound 1]
- pIC50 [1]: 7.09
- pIC50 [2]: 7.25

Structure (SMILES): Clc1nccnc1OC1CN2CCC1CC2 (racemic) [Compound 2]
- pIC50 [1]: 6.43
- pIC50 [2]: 6.60

Structure (SMILES): CCCCOc1nccnc1OC1CN2CCC1CC2 (racemic) [Compound 3]
- pIC50 [1]: 7.71
- pIC50 [2]: 7.84

Structure (SMILES): CCCOc1nccnc1OC1CN2CCC1CC2 (racemic) [Compound 4]
- pIC50 [1]: 7.60
- pIC50 [2]: 7.68

Structure (SMILES): CCCCCCOc1nccnc1OC1CN2CCC1CC2 (racemic) [Compound 5]
- pIC50 [1]: 7.40
- pIC50 [2]: 7.49

Structure (SMILES): CCCCSc1nccnc1OC1CN2CCC1CC2 (racemic) [Compound 6]
- pIC50 [1]: 8.60
- pIC50 [2]: 9.05

Structure (SMILES): CCCCCSc1nccnc1OC1CN2CCC1CC2 (racemic) [Compound 7]
- pIC50 [2]: 8.17

Structure (SMILES): c1cnc(OC2CN3CCC2CC3)cn1 (racemic) [Compound 8]
- pIC50 [2]: < 6.00

Structure (SMILES): CCCCCOc1nccnc1OC1CN2CCC1CC2 (racemic) [Compound 9]
- pIC50 [2]: 7.52

Structure (SMILES): COc1nccnc1OC1CN2CCC1CC2 (racemic) [Compound 10]
- pIC50 [2]: 6.65

Structure (SMILES): CCOc1nccnc1OC1CN2CCC1CC2 (racemic) [Compound 11]
- pIC50 [2]: 7.28

Structure (SMILES): CCCCCCSc1nccnc1OC1CN2CCC1CC2 (racemic) [Compound 12]
- pIC50 [2]: 7.89

Structure (SMILES): CSc1nccnc1OC1CN2CCC1CC2 (racemic) [Compound 13]
- pIC50 [2]: 7.38

Structure (SMILES): CCSc1nccnc1OC1CN2CCC1CC2 (racemic) [Compound 14]
- pIC50 [2]: 7.68

Structure (SMILES): CCCSc1nccnc1OC1CN2CCC1CC2 (racemic) [Compound 15]
- pIC50 [2]: 7.89

Structure (SMILES): CCCCCCCSc1nccnc1OC1CN2CCC1CC2 (racemic) [Compound 16]
- pIC50 [2]: 7.64

Structure (SMILES): Clc1nccnc1O[C@H]1CN2CCC[C@@H]1C2 (relative stereo) [Compound 19]
- pIC50 [2]: 6.97

Structure (SMILES): Cc1nccnc1O[C@H]1CN2CCC[C@@H]1C2 (relative stereo) [Compound 20]
- pIC50 [2]: 6.61

Structure (SMILES): Clc1cncc(O[C@H]2CN3CCC[C@@H]2C3)n1 (relative stereo) [Compound 22]
- pIC50 [2]: 7.28

Structure (SMILES): CCCCOc1nccnc1O[C@H]1CN2CCC[C@@H]1C2 (relative stereo) [Compound 23]
- pIC50 [2]: 8.57

Structure (SMILES): CCCCSc1nccnc1O[C@H]1CN2CCC[C@@H]1C2 (relative stereo) [Compound 24]
- pIC50 [2]: 9.27

Structure (SMILES): CCCSc1nccnc1O[C@H]1CN2CCC[C@@H]1C2 (relative stereo) [Compound 29]
- pIC50 [2]: 9.17

Structure (SMILES): CCCCCSc1nccnc1O[C@H]1CN2CCC[C@@H]1C2 (relative stereo) [Compound 30]
- pIC50 [2]: 9.09

Structure (SMILES): CC(C)CSc1nccnc1O[C@H]1CN2CCC[C@@H]1C2 (relative stereo) [Compound 31]
- pIC50 [2]: 8.77

Structure (SMILES): CCSc1nccnc1O[C@H]1CN2CCC[C@@H]1C2 (relative stereo) [Compound 32]
- pIC50 [2]: 8.40

Structure (SMILES): FC(F)(F)CSc1nccnc1O[C@H]1CN2CCC[C@@H]1C2 (relative stereo) [Compound 33]
- pIC50 [2]: 9.15

Structure (SMILES): C/C=C/CSc1nccnc1O[C@H]1CN2CCC[C@@H]1C2 (relative stereo) [Compound 34]
- pIC50 [2]: 9.18

Structure (SMILES): FC(F)(F)CCCSc1nccnc1O[C@H]1CN2CCC[C@@H]1C2 (relative stereo) [Compound 35]
- pIC50 [2]: 9.27

Structure (SMILES): C=CCSc1nccnc1O[C@H]1CN2CCC[C@@H]1C2 (relative stereo) [Compound 36]
- pIC50 [2]: 8.24

Structure (SMILES): CC(C)CCSc1nccnc1O[C@H]1CN2CCC[C@@H]1C2 (relative stereo) [Compound 37]
- pIC50 [2]: 9.12

Structure (SMILES): FC(F)(F)Oc1ccc(CSc2nccnc2O[C@H]2CN3CCC[C@@H]2C3)cc1 (relative stereo) [Compound 38]
- pIC50 [2]: 8.48

Structure (SMILES): CCCSc1cncc(O[C@H]2CN3CCC[C@@H]2C3)n1 (relative stereo) [Compound 39]
- pIC50 [2]: 7.10

Structure (SMILES): FC(F)(F)CSc1cncc(O[C@H]2CN3CCC[C@@H]2C3)n1 (relative stereo) [Compound 40]
- pIC50 [2]: 7.77

Structure (SMILES): COCCSc1nccnc1O[C@H]1CN2CCC[C@@H]1C2 (relative stereo) [Compound 41]
- pIC50 [2]: 8.80

Structure (SMILES): C(=Cc1ccccc1)CSc1nccnc1O[C@H]1CN2CCC[C@@H]1C2 (relative stereo) [Compound 42]
- pIC50 [2]: 8.32

Structure (SMILES): CC(C)=CCCSc1nccnc1O[C@H]1CN2CCC[C@@H]1C2 (relative stereo) [Compound 43]
- pIC50 [2]: 8.66

Structure (SMILES): O=C1CC2(CCCC2)CC(=O)N1CCCCN1CCN(c2ncccn2)CC1 [Buspirone]
- receptor interaction [3]: interacts with reasonable potency only at the 5-HT1A and dopamine receptors
- receptor interaction [4]: interacts with reasonable potency only at the 5-HT1A and dopamine receptors

Structure (SMILES): CCCCSc1nccnc1OCCN(C)C [Compound 17]
- pIC50 [2]: 8.35

Structure (SMILES): CCCCSc1nccnc1OCC[N+](C)(C)C [Compound 18]
- pIC50 [2]: 8.27

Structure (SMILES): c1cnc(O[C@H]2CN3CCC[C@@H]2C3)cn1 [Compound 21]
- pIC50 [2]: 6.91

Structure (SMILES): CN1[C@@H]2CC[C@H]1C[C@@H](Oc1cnccn1)C2 [Compound 25]
- pIC50 [2]: 6.17

Structure (SMILES): CN(C)CCOc1cnccn1 [Compound 26]
- pIC50 [2]: < 6.00

Structure (SMILES): C[N+](C)(C)CCOc1cnccn1 [Compound 27]
- pIC50 [2]: < 6.00

Structure (SMILES): CN1CCC[C@H]1COc1cnccn1 [Compound 28]
- pIC50 [2]: 5.24

Structure (SMILES): C[N+](C)(C)CC#CCN1CCCC1=O [^3 H-Oxo, ^3 H-Oxotremorine-M]
- pKd ([5]; first (high affinity) site): 8.74
- pKd ([5]; second (medium affinity) site): 7.70
- pKd ([5]; third site, not determined under present conditions, read-out: affinity): 5.52

Structure (SMILES): CCCC(C)(COC(N)=O)COC(N)=O [meprobamate]
- side effects [6]: numerous side effects such as potential for abuse and addiction or potentiation of the effects of ethanol

Structure (SMILES): CN1CCN(CC(=O)N2c3ccccc3C(=O)Nc3cccnc32)CC1 [pirenzepine, pirenzepine, [N-methyl-^3 H]]
- selectivity [7]: selective for M1 -sites
- interaction with M2 -sites [8]: also interact with M2 -sites
